Source: patent US20230023559A1, “ARYLMETHYLENE HETEROCYCLIC COMPOUNDS AS KV1.3 POTASSIUM SHAKER CHANNEL BLOCKERS” (D. E. Shaw Research, LLC, priority 2019, published 2023)

Target: T1, Kv1.3 potassium channel (Homo sapiens, UniProt P22001)
T1 construct: expressed in transfected cells
Test: Kv1.3 potassium channel blocker activity, automated whole-cell patch clamp (Patchliner)
Format: cell-based
Conditions: CHO-K1 cells stably expressing Kv1.3; whole cell current inhibition; read-out: Kv1.3_IC50
Method: The assay described below is used to evaluate the disclosed compound's activities as Kv1.3 potassium channel blockers.
CHO-K1 cells stably expressing Kv1.3 were grown in DMEM containing 10% heat-inactivated FBS, 1 mM Sodium Pyruvate, 2 mM L-Glutamine and G418 (500 μg/ml).
All compounds were dissolved in DMSO at 30 mM.
The currents were evoked by applying 100 ms depolarizing pulses from −90 mV (holding potential) to +40 mV were applied with 0.1 Hz frequency. […] 10 second breaks were used between pulse trains (see Table A below).
Data were sampled at 10 kHz without filtering. Passive leak currents were subtracted online using a P/4 procedure (HEKA Elektronik Dr. Schulze GmbH). […] Total compound incubation time before the next pulse train was not longer than 10 seconds. Peak current inhibition was observed during compound equilibration.

T1 sequence (P22001 whole entry): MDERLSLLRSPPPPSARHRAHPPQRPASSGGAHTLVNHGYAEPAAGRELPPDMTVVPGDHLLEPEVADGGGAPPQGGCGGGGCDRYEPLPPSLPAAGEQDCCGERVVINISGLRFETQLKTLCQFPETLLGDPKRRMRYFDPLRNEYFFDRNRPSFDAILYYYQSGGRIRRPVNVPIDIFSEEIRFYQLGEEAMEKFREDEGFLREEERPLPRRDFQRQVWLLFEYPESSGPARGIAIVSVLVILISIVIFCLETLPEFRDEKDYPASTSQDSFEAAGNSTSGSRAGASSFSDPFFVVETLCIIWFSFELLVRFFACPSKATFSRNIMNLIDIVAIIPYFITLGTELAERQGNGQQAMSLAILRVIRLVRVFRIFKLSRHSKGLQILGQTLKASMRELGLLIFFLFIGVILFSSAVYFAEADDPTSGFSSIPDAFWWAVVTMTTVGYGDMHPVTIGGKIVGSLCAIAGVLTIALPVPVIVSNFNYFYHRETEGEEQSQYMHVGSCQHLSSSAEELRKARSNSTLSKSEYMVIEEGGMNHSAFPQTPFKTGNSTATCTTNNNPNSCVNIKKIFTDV

NC(c1cc(Cl)c(Cl)c(F)c1O)C1CCN(C(=O)[C@H](O)CO)CC1 (stereo partly drawn) [Compound 290, (2R)-1-[4-[amino(4,5-dichloro-3-fluoro-2-hydroxyphenyl)methyl]piperidin-1-yl]-2,3-dihydroxypropan-1-one Trifluoroacetic Acid]
IC50: < 10 µM

COc1cc(C(=O)N2CCC([C@@H](N)c3cc(Cl)c(C)cc3O)CC2)c[nH]c1=O [Compound 251, 5-[4-[(R)-amino(5-chloro-2-hydroxy-4-methylphenyl)methyl]piperidine-1-carbonyl]-3-methoxy-1H-pyridin-2-one Trifluoroacetic Acid]
IC50: < 0.5 µM

N[C@@H](c1cc(Cl)c(Cl)cc1O)C1CCN(C(=O)c2c[nH]c(=O)[nH]c2=O)CC1 [Compound 252, 5-[4-[(R)-amino(4,5-dichloro-2-hydroxyphenyl)methyl]piperidine-1-carbonyl]-1,3-dihydropyrimidine-2,4-dione formic acid]
IC50: < 0.5 µM

N[C@H](c1cc(Cl)c(Cl)cc1O)C1C2CCC1CN(C(=O)[C@H](O)CO)C2 (stereo partly drawn) [Compound 314, (2R)-1-[8-[(S)-amino(4,5-dichloro-2-hydroxyphenyl)methyl]-3-azabicyclo[3.2.1]octan-3-yl]-2,3-dihydroxypropan-1-one Trifluoroacetic Acid]
IC50: < 30 µM

N[C@@H](c1cc(Cl)c(Cl)cc1O)C1CCN(C(=O)c2c[nH]c(=O)c(Cl)c2)CC1 [Compound 255, 5-[4-[(R)-amino(4,5-dichloro-2-hydroxyphenyl)methyl]piperidine-1-carbonyl]-3-chloro-1H-pyridin-2-one]
IC50: < 0.5 µM

N[C@@H](c1cc(Cl)c(Cl)cc1O)C1CC2CC1CN2C(=O)[C@H](O)CO (stereo partly drawn) [Compound 315, (2R)-1-(5-((R)-amino(4,5-dichloro-2-hydroxyphenyl)methyl)-2-azabicyclo[2.2.1]heptan-2-yl)-2,3-dihydroxypropan-1-one Trifluoroacetic Acid]
IC50: < 10 µM

N[C@@H](c1cc(Cl)c(Cl)cc1O)C1CCN(C(=O)C2CNC(=O)O2)CC1 (stereo partly drawn) [Compound 261, 5-[4-[(R)-amino(4,5-dichloro-2-hydroxyphenyl)methyl]piperidine-1-carbonyl]-1,3-oxazolidin-2-one trifluoroacetic acid]
IC50: < 0.5 µM

CN1CCC([C@@H](O)c2cc(Cl)c(Cl)cc2O)CC1 (single isomer, unassigned) [Compound 24]
IC50: < 10 µM

O=S(=O)([C@H]1CCNC1)N1CCC([C@@H](O)c2cc(Cl)c(Cl)cc2O)CC1 (single isomer, unassigned; isomer 1) [Compound 124, 4,5-dichloro-2-(hydroxy(1-(pyrrolidin-3-ylsulfonyl)piperidin-4-yl)methyl)phenol Isomer 1]
IC50: < 0.5 µM

NC(c1cc(Cl)c(Cl)cc1O)C1CCN(C2CCNC2=O)CC1 (stereo not shown) [Compound 65, 3-(4-(amino(4,5-dichloro-2-hydroxyphenyl)methyl)piperidin-1-yl)pyrrolidin-2-one Trifluoroacetic Acid]
IC50: < 10 µM

Cc1cc(O)c([C@H](N)C2CCN(C(=O)c3cc(Cl)c(=O)n(C)c3)CC2)cc1Cl [Compound 270, 5-[4-[(R)-amino (5-chloro-2-hydroxy-4-methylphenyl)methyl]piperidine-1-carbonyl]-3-chloro-1-methyl-pyridin-2-one trifluoroacetic acid]
IC50: < 0.5 µM

N[C@H](c1cc(Cl)c(Cl)cc1O)C1CC2CC1CN2C(=O)[C@H](O)CO (stereo partly drawn) [Compound 316, (2R)-1-(5-((S)-amino(4,5-dichloro-2-hydroxyphenyl)methyl)-2-azabicyclo[2.2.1]heptan-2-yl)-2,3-dihydroxypropan-1-one Trifluoroacetic Acid]
IC50: < 10 µM

CC(=O)N1CCC(C(Nc2ccccn2)c2cc(Cl)c(Cl)cc2O)CC1 (stereo not shown) [Compound 27, 1-[4-[(4,5-dichloro-2-hydroxyphenyl)[(pyridin-2-yl)amino]methyl]piperidin-1-yl]ethan-1-one Trifluoroacetic Acid]
IC50: < 30 µM

Cc1cc(O)c([C@H](N)C2CCN(C(=O)c3ccc4c(c3)CCC(=O)N4)CC2)cc1Cl [Compound 259, 6-[4-[(R)-amino (5-chloro-2-hydroxy-4-methylphenyl)methyl]piperidine-1-carbonyl]-3,4-dihydro-1H-quinolin-2-one trifluoroacetic acid]
IC50: < 0.5 µM

CC[C@@H](N)C(=O)N1CCC([C@@H](N)c2cc(Cl)c(Cl)cc2O)CC1 [Compound 88, (R)-2-amino-1-(4-((R)-amino(4,5-dichloro-2-hydroxyphenyl)methyl)piperidin-1-yl)butan-1-one trifluoroacetic acid]
IC50: < 0.5 µM

N[C@@H](c1cc(Cl)c(Cl)cc1O)[C@@H]1CCN(C(=O)[C@H](O)CO)C1 [Compound 311, (2R)-1-[(3R)-3-[(R)-amino(4,5-dichloro-2-hydroxyphenyl)methyl]pyrrolidin-1-yl]-2,3-dihydroxypropan-1-one]
IC50: < 10 µM

C[C@@H](N)C(=O)N1CCC([C@H](N)c2cc(Cl)c(Cl)cc2O)CC1 (single isomer, unassigned) [Compound 87]
IC50: < 10 µM

CC(C)c1cc(O)c([C@H](N)C2CCN(C(=O)[C@H](O)CO)CC2)cc1Cl [Compound 282, (2R)-1-(4-((R)-amino(5-chloro-2-hydroxy-4-isopropylphenyl)methyl)piperidin-1-yl)-2,3-dihydroxypropan-1-one]
IC50: < 30 µM

NC(=O)CCN1CCC(C(N)c2cc(Cl)c(Cl)cc2O)CC1 (stereo not shown) [Compound 78]
IC50: < 10 µM

N[C@@H](c1c(O)ccc(Cl)c1Cl)C1CCN(C(=O)[C@H](O)CO)CC1 [Compound 187, (2R)-1-[4-[(R)-amino(2,3-dichloro-6-hydroxyphenyl)methyl]piperidin-1-yl]-2,3-dihydroxypropan-1-one Trifluoroacetic Acid]
IC50: < 10 µM

CCNC(c1cc(Cl)c(Cl)cc1O)C1CCN(C(=O)[C@H](O)CO)CC1 (stereo partly drawn) [Compound 202, (2R)-1-[4-[(4,5-dichloro-2-hydroxyphenyl)(ethylamino)methyl]piperidin-1-yl]-2,3-dihydroxypropan-1-one Trifluoroacetic Acid]
IC50: < 30 µM

N[C@@H](c1cc(Cl)ccc1O)C1CCN(C(=O)[C@H](O)CO)CC1 [Compound 295, (2R)-1-[4-[(R)-amino(5-chloro-2-hydroxyphenyl)methyl]piperidin-1-yl]-2,3-dihydroxypropan-1-one]
IC50: < 10 µM

N[C@H](c1cc(Cl)c(Cl)cc1O)[C@H]1CCN(C(=O)[C@H](O)CO)C1 (single isomer, unassigned; isomer 1) [Compound 308]
IC50: < 10 µM

Cc1cc(O)c([C@H](N)C2CCN(C(=O)c3ccc4oc(=O)[nH]c4c3)CC2)cc1Cl [Compound 258, 5-[4-[(R)-amino(5-chloro-2-hydroxy-4-methylphenyl)methyl]piperidine-1-carbonyl]-3H-1,3-benzoxazol-2-one formic acid]
IC50: < 0.5 µM

N[C@H](c1c(O)cc(Cl)c(Cl)c1F)C1CCN(C(=O)[C@H](O)CO)CC1 [Compound 287, (R)-1-(4-((S)-amino(3,4-dichloro-2-fluoro-6-hydroxyphenyl)methyl)piperidin-1-yl)-2,3-dihydroxypropan-1-one]
IC50: < 10 µM

O=C([C@H]1CCNC1)N1CCC[C@H]([C@H](O)c2c(O)ccc(Cl)c2Cl)CC1 (single isomer, unassigned; isomer 2) [Compound 129]
IC50: < 10 µM

CN[C@@H](c1cc(Cl)c(Cl)cc1O)C1CCN(C(=O)[C@H](O)CO)CC1 [Compound 337, (2R)-1-[4-[(R)-(4,5-dichloro-2-hydroxyphenyl)(methylamino)methyl]piperidin-1-yl]-2,3-dihydroxypropan-1-one]
IC50: < 10 µM

N[C@@H](c1cc(Cl)c(Cl)cc1O)C1CCN(C(=O)[C@@H]2CNC(=O)CO2)CC1 [Compound 229, (6S)-6-[4-[(R)-amino(4,5-dichloro-2-hydroxyphenyl)methyl]piperidine-1-carbonyl]morpholin-3-one Trifluoroacetic Acid]
IC50: < 10 µM

O=C([C@H]1CCNC1)N1CCCC(C(O)c2cc(Cl)c(Cl)cc2O)CC1 (stereo partly drawn) [Compound 128, 4,5-dichloro-2-[hydroxy([1-[(3S)-pyrrolidine-3-carbonyl]azepan-4-yl])methyl]phenol]
IC50: < 10 µM

CC1(C(N)c2cc(Cl)c(Cl)cc2O)CCN(C(=O)[C@H](O)CO)CC1 (stereo partly drawn) [Compound 309, (2R)-1-[4-[amino(4,5-dichloro-2-hydroxyphenyl)methyl]-4-methylpiperidin-1-yl]-2,3-dihydroxypropan-1-one Trifluoroacetic Acid]
IC50: < 10 µM

N[C@@H](c1cc(Cl)c(C2CCC2)cc1O)C1CCN(C(=O)[C@H](O)CO)CC1 [Compound 288, (2R)-1-[4-[(R)-amino(5-chloro-4-cyclobutyl-2-hydroxyphenyl)methyl]piperidin-1-yl]-2,3-dihydroxypropan-1-one Trifluoroacetic Acid]
IC50: < 30 µM

CC(N)(c1cc(Cl)c(Cl)cc1O)C1CCNCC1 (stereo not shown) [Compound 40, 2-[1-amino-1-(piperidin-4-yl)ethyl]-4,5-dichlorophenol]
IC50: < 30 µM

N[C@@H](c1cc(Cl)c(Cl)cc1O)[C@@H]1CCCN(C(=O)[C@H](O)CO)C1 [Compound 329, (2R)-1-[(3R)-3-[(R)-amino(4,5-dichloro-2-hydroxyphenyl)methyl]piperidin-1-yl]-2,3-dihydroxypropan-1-one Trifluoroacetic Acid]
IC50: < 10 µM

N[C@@H](c1cc(Cl)c(Cl)cc1O)[C@H]1CCCN(C(=O)[C@H](O)CO)CC1 (single isomer, unassigned; isomer 2) [Compound 334]
IC50: < 10 µM
